In patent publication US20250352520A1, “USE OF DEXPRAMIPEXOLE FOR THE TREATMENT OF EOSINOPHILIC COPD” (Areteia Therapeutics, Inc., priority 2024, published 2025):
Read-outs that look alike come from different tables or passages of the source.

Settings: for CT Scan - Small Airways Disease, Change from Baseline / CT Scan - Small Airways Disease, Result / CT Scan Parametric Imaging - Emphysema, Change from Baseline / CT Scan Parametric Imaging - Emphysema, Result / CT Scan - Air Trapping Index -856 HU, Change from Baseline / CT Scan - Air Trapping Index -856 HU, Result: Week 16; for CT Scan - Air Trapping Index -856 HU, Change from Baseline: first Change column under heads Inspiratory | Expiratory; for CT Scan - Air Trapping Index -856 HU, Result: first Result column under heads Inspiratory | Expiratory
Text: All eligible participants received inspiratory and expiratory CT scans at Baseline and at Week 16 to assess for changes in mucus plugs and airway architecture (e.g., changes in airway wall thickness).

CCCN[C@@H]1CCc2nc(N)sc2C1 [Dexpramipexole, (6R)-2-amino-4,5,6,7-tetrahydro-6-(propylamino)benzothiazole]
CT Scan - Small Airways Disease, Change from Baseline (Subject ID 10001-001-0001): −7.12
CT Scan - Small Airways Disease, Result (Subject ID 10001-001-0001): 25.72
CT Scan Parametric Imaging - Emphysema, Change from Baseline (Subject ID 10001-001-0001): 2.41
CT Scan Parametric Imaging - Emphysema, Result (Subject ID 10001-001-0001): 36.28
CT Scan - Air Trapping Index -856 HU, Change from Baseline (Subject ID 10001-001-0001): −0.29%
CT Scan - Air Trapping Index -856 HU, Result (Subject ID 10001-001-0001): 49.57%
CT Scan - Small Airways Disease, Change from Baseline (Subject ID 10001-008-0002): 2.18
CT Scan - Small Airways Disease, Result (Subject ID 10001-008-0002): 51.14
CT Scan Parametric Imaging - Emphysema, Change from Baseline (Subject ID 10001-008-0002): −0.73
CT Scan Parametric Imaging - Emphysema, Result (Subject ID 10001-008-0002): 35.88
CT Scan - Air Trapping Index -856 HU, Change from Baseline (Subject ID 10001-008-0002): 0.57%
CT Scan - Air Trapping Index -856 HU, Result (Subject ID 10001-008-0002): 68.06%
CT Scan - Small Airways Disease, Change from Baseline (Subject ID 10001-010-0005): −3.80
CT Scan - Small Airways Disease, Result (Subject ID 10001-010-0005): 39.08
CT Scan Parametric Imaging - Emphysema, Change from Baseline (Subject ID 10001-010-0005): 0.16
CT Scan Parametric Imaging - Emphysema, Result (Subject ID 10001-010-0005): 12.11
CT Scan - Air Trapping Index -856 HU, Change from Baseline (Subject ID 10001-010-0005): −2.18%
CT Scan - Air Trapping Index -856 HU, Result (Subject ID 10001-010-0005): 29.57%
CT Scan - Small Airways Disease, Change from Baseline (Subject ID 10001-022-0001): −4.12
CT Scan - Small Airways Disease, Result (Subject ID 10001-022-0001): 46.36
CT Scan Parametric Imaging - Emphysema, Change from Baseline (Subject ID 10001-022-0001): −4.75
CT Scan Parametric Imaging - Emphysema, Result (Subject ID 10001-022-0001): 8.59
CT Scan - Air Trapping Index -856 HU, Change from Baseline (Subject ID 10001-022-0001): −11.40%
CT Scan - Air Trapping Index -856 HU, Result (Subject ID 10001-022-0001): 27.88%
CT scoring for small airway disease (all patients): All patients showed an improvement in scoring
CT scoring for Air Trapping, change (one patient): −11.40
CT scoring for emphysema, decrease (one patient): 4.75 points
CT scoring for small airway disease, improvement (one patient): 7.12 points
